Data on one compound can be found in article PMC9241915, “Functional Analysis of Feedback Inhibition-Insensitive Variants of N-Acetyl Glutamate Kinase Found in Sake Yeast Mutants with Ornithine Overproduction” (Microbiology Spectrum, 2022).

Common to all, as to assay: PK/LDH-coupled NADH oxidation at […] nm
Assay type in all cases: biochemical

For assay [1], the target named is T1, NAGK (N-acetyl glutamate kinase, Arg6) (Saccharomyces cerevisiae, UniProt Q01217, T340L).
T1 construct: gene ARG5

Assay [2] deals with T2, NAGK (N-acetyl glutamate kinase, Arg6) (Saccharomyces cerevisiae, UniProt Q01217, C119Y).
T2 construct: gene ARG5

For assay [3], the target named is T3, NAGK (N-acetyl glutamate kinase, Arg6) (Saccharomyces cerevisiae, UniProt Q01217, T340R).
T3 construct: gene ARG5

The target in assay [4] is T4, NAGK (N-acetyl glutamate kinase, Arg6) (Saccharomyces cerevisiae, UniProt Q01217).
T4 construct: gene ARG5

Assay [5] addresses T5, NAGK (N-acetyl glutamate kinase, Arg6) (Saccharomyces cerevisiae, UniProt Q01217, V267A).
T5 construct: gene ARG5

For assay [6], the target named is T6, NAGK (N-acetyl glutamate kinase, Arg6) (Saccharomyces cerevisiae, UniProt Q01217, T340A).
T6 construct: gene ARG5

Assay [7] concerns the target T7, NAGK (N-acetyl glutamate kinase, Arg6) (Saccharomyces cerevisiae, UniProt Q01217, T340E).
T7 construct: gene ARG5

Assay [8] deals with T8, NAGK (N-acetyl glutamate kinase, Arg6) (Saccharomyces cerevisiae, UniProt Q01217, T340S).
T8 construct: gene ARG5

Assay [9] addresses T9, NAGK (N-acetyl glutamate kinase, Arg6) (Saccharomyces cerevisiae, UniProt Q01217, T340N).
T9 construct: gene ARG5

T2 sequence (Q01217 58-513 C119Y): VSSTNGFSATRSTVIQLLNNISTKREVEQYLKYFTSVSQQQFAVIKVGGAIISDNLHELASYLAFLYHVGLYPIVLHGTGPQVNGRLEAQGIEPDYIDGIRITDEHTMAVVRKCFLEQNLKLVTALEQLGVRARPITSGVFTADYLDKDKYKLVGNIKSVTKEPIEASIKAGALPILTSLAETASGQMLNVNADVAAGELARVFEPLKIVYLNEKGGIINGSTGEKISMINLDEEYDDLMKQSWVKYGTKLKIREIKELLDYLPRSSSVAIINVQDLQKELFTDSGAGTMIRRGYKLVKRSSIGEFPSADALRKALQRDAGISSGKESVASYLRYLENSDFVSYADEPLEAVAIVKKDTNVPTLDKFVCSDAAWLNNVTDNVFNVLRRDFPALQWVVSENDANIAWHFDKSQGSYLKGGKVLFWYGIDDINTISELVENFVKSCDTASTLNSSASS
T1 sequence (Q01217 58-513 T340L): as the sequence (Q01217 58-513 C119Y) above, with Y62C, T283L counted along it
T7 sequence (Q01217 58-513 T340E): as the sequence (Q01217 58-513 C119Y) above, with Y62C, T283E counted along it
T5 sequence (Q01217 58-513 V267A): as the sequence (Q01217 58-513 C119Y) above, with Y62C, V210A counted along it
T3 sequence (Q01217 58-513 T340R): as the sequence (Q01217 58-513 C119Y) above, with Y62C, T283R counted along it
T4 sequence (Q01217 58-513): as the sequence (Q01217 58-513 C119Y) above, with Y62C counted along it
T9 sequence (Q01217 58-513 T340N): as the sequence (Q01217 58-513 C119Y) above, with Y62C, T283N counted along it
T6 sequence (Q01217 58-513 T340A): as the sequence (Q01217 58-513 C119Y) above, with Y62C, T283A counted along it
T8 sequence (Q01217 58-513 T340S): as the sequence (Q01217 58-513 C119Y) above, with Y62C, T283S counted along it

In general, IC50 refers to the midpoint of a concentration-inhibition curve. A lower IC50 goes with higher potency. For `N=C(N)NCCC[C@H](N)C(=O)O` [arginine], the IC50 in assay [1] is 10.5 ± 0.8 mM; in assay [2], 0.78 ± 0.05 mM; in assay [3], 2.48 ± 0.67 mM; in assay [4], 0.09 mM; in [5] it was 2.83 ± 0.16 mM; in assay [6], 2.25 ± 0.2 mM. Further, the IC50 in assay [7] turned out to be 6.87 ± 1 mM; in assay [8] it was 0.17 ± 0.12 mM; in [9] it was 24 ± 5.36 mM.
